Reference: PubChem BioAssay (NCI)
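Values below derive from 48-hour exposures of cells grown in 96-well plates, with endpoints linearly interpolated between the two concentrations bracketing the appropriate inhibition level. GI50: concentration for 50% inhibition of growth. The concentration for full growth arrest is given as TGI.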

Columns and labels:
Test in all cases: NCI anticancer screen, dose series, 48 h
CCRF-CEM leukemia = tested on: CCRF-CEM leukemia
EKVX NSCLC = tested on: EKVX NSCLC
HCC-2998 colon = tested on: HCC-2998 colon
HOP-62 NSCLC = tested on: HOP-62 NSCLC
HS 578T breast = tested on: HS 578T breast
OVCAR-3 ovarian = tested on: OVCAR-3 ovarian
SK-MEL-2 melanoma = tested on: SK-MEL-2 melanoma
T-47D breast = tested on: T-47D breast
TK-10 renal = tested on: TK-10 renal
U251 CNS = tested on: U251 CNS

| Structure (SMILES) | GI50 (CCRF-CEM leukemia) | TGI (CCRF-CEM leukemia) | GI50 (EKVX NSCLC) | TGI (EKVX NSCLC) | GI50 (HCC-2998 colon) | TGI (HCC-2998 colon) | GI50 (HOP-62 NSCLC) | TGI (HOP-62 NSCLC) | GI50 (HS 578T breast) | TGI (HS 578T breast) | GI50 (OVCAR-3 ovarian) | TGI (OVCAR-3 ovarian) | GI50 (SK-MEL-2 melanoma) | TGI (SK-MEL-2 melanoma) | GI50 (T-47D breast) | TGI (T-47D breast) | GI50 (TK-10 renal) | TGI (TK-10 renal) | GI50 (U251 CNS) | TGI (U251 CNS) |
| --- | --- | --- | --- | --- | --- | --- | --- | --- | --- | --- | --- | --- | --- | --- | --- | --- | --- | --- | --- | --- |
| CCN(Cc1ccc(Cl)cc1)c1ccc(CO)c(Cl)c1 | 9.96 µM | 45.6 µM | 12.4 µM | 29.1 µM | 7.7 µM | 21.9 µM | 1.24 µM | 13.9 µM | 6.09 µM | 31.5 µM | 1.15 µM | 5.75 µM | 1.75 µM | 10.6 µM | 0.196 µM | 1.25 µM | 0.0786 µM | 0.379 µM | 0.863 µM | 13 µM |
| O=C(CCCCCCNC(=O)c1cnc(N(c2ccccc2)c2ccccc2)nc1)NO | 1.03 µM | > 100 µM | 4.95 µM | > 100 µM | 3.38 µM | 12.5 µM | 3.46 µM | 28.1 µM | 2.54 µM | > 100 µM | 2.71 µM | 15.3 µM | 1.9 µM | 8.36 µM | 0.907 µM | 5.83 µM | 2.07 µM | 12.5 µM | 3 µM | 15.6 µM |
| CCN1C(=O)N(CC)C2C1NN=c1s/c(=C\c3cccc(F)c3)c(=O)n12 (centres undefined) | 0.181 µM | > 100 µM | 0.657 µM | > 100 µM | 0.223 µM | > 65.6 µM | 0.598 µM | > 100 µM | 0.0899 µM | > 100 µM | 0.17 µM | > 100 µM | 1.69 µM | > 100 µM | 17.4 µM | > 100 µM | 27.2 µM | > 100 µM | 0.21 µM | > 100 µM |
| C/C=C(\C)C(=O)NC1=CC[C@@]2(C)C(=CCC3C2CC[C@@]2(C)C3CC[C@@H]2C(C)N(C)C)C1=O (some centres undefined) | 2.58 µM | 15.3 µM | 3.17 µM | 51.8 µM | 4.01 µM | 15.6 µM | 2.08 µM | 5.51 µM | 4.65 µM | 23.2 µM | 2.5 µM | 12.8 µM | 7.52 µM | 22.9 µM | 1.94 µM | 25.7 µM | 12.3 µM | 32.4 µM | 4.34 µM | 23.3 µM |
| COc1cc(/C=C\c2cc(OC)c(OC)c(OC)c2)cc(NC(=O)/C=C/c2cc(OC)c(OC)c(OC)c2)c1OC | 2.67 µM | > 100 µM | 15.7 µM | > 100 µM | > 100 µM | > 100 µM | 7.21 µM | > 100 µM | > 100 µM | > 100 µM | 10.8 µM | > 100 µM | 2.69 µM | 9.77 µM | 3.11 µM | > 100 µM | 6.72 µM | > 100 µM | 6.71 µM | > 100 µM |
| CCCCON(OC(=O)c1ccc2ccccc2c1)C(=O)c1ccccc1 | 21.4 µM | 57.3 µM | > 100 µM | > 100 µM | > 100 µM | > 100 µM | > 100 µM | > 100 µM | > 100 µM | > 100 µM | > 100 µM | > 100 µM | > 100 µM | > 100 µM | > 100 µM | > 100 µM | > 100 µM | > 100 µM | > 100 µM | > 100 µM |
| C[C@H](NC(=O)[C@@H](C)N)[C@H](Oc1ccc2c(cnn2-c2ccc(F)cc2)c1)c1ccc2c(c1)OCCO2 | 1.49 µM | 4.6 µM | 1.04 µM | 12.1 µM | 1.78 µM | 3.66 µM | 4.34 µM | 20.1 µM | 3.67 µM | 13.1 µM | 2.37 µM | 6.98 µM | 1.91 µM | 3.92 µM | 2.19 µM | 5.41 µM | 2.22 µM | 5.25 µM | 2.4 µM | 5.56 µM |
| CCOC(=O)Nc1ccc2c(c1)/C(=N\NC(N)=S)c1ccccc1-2 | 3.49 µM | 31.5 µM | 4.29 µM | 41.2 µM | 4.77 µM | 22.5 µM | 4.9 µM | 22.6 µM | 5.43 µM | 36.7 µM | 4.38 µM | 27.8 µM | 4.95 µM | 15.8 µM | 2.48 µM | 9.84 µM | 15.2 µM | > 68.5 µM | 4.54 µM | 40.9 µM |
| CN(/N=C/c1cccc2cccnc12)c1ccc([N+](=O)[O-])cc1[N+](=O)[O-] |  | > 100 µM |  | > 95 µM |  | > 100 µM |  | 22.9 µM |  | 34.8 µM |  | 39.8 µM |  | 47.4 µM |  | 85.4 µM |  | 54 µM |  | 29.1 µM |
| CCN(Cc1cc(Nc2nc(C)cn3c(-c4cn[nH]c4)cnc23)sn1)C(C)(C)CO | < 0.01 µM | 9.55 µM | 0.578 µM | 15.2 µM | 0.0741 µM | 4.56 µM | 0.0411 µM | 0.688 µM | 0.0227 µM | 0.0855 µM | 0.0481 µM | 2.68 µM | 0.0293 µM | 7.35 µM | 0.0689 µM | 18.5 µM | 0.0507 µM | 2.24 µM | 0.0289 µM | 2.21 µM |
| N#CC1(C#N)C2(c3ccccc3)OC(c3ccccc3)(c3cc4ccccc4cc32)C1(C#N)C#N |  | 3.29 µM |  | 32.1 µM |  | 33.8 µM |  | 36.4 µM |  | 72.2 µM |  | 28.5 µM |  | 37.9 µM |  | 46.5 µM |  | 41 µM |  | 35.9 µM |
| CNC(=O)Nc1nc2ccc([N+](=O)[O-])cc2[nH]1 |  | > 100 µM |  | > 100 µM |  | > 100 µM |  | > 100 µM |  | > 100 µM |  | > 100 µM |  | > 100 µM |  | > 100 µM |  | > 100 µM |  | > 100 µM |
| O=C1C(Cl)=C(Nc2cccc(Cl)c2)C(=O)N1Cc1ccc(Cl)cc1 | 0.318 µM | > 19.8 µM | 6.78 µM | 23.7 µM | 1.16 µM | 4.72 µM | 1.53 µM | 13.9 µM | 0.913 µM | 11.1 µM | 0.784 µM | 6.24 µM | 2.2 µM |  | 3.38 µM | 34 µM | 3.37 µM | 15.4 µM | 0.312 µM | 14.2 µM |
| COC(=O)C1CC23CCCN4CCC5(c6ccccc6N(C=O)C15CC2)C43 (centres undefined) |  | > 100 µM |  | > 100 µM |  | > 100 µM |  | > 100 µM |  | > 100 µM |  | > 100 µM |  | > 100 µM |  | > 100 µM |  | > 100 µM |  | > 100 µM |
